This is an account of results in patent US7018836B1, “P-TEFb compositions, methods and screening assays” (priority 1996, dated 2006).

One test concerns Drosophila P-TEFb. The format is biochemical. The following applies: for inhibition of P-TEFb CTD kinase at higher ATP: 100 μM ATP. The protocol: 0.4 μl of purified RNA polymerase II and various protein samples were mixed in 18 μl of 55 mM HMK. The reaction was then initiated by the addition of 2 μl of a solution containing 2 μCi of [γ-^32P]ATP (ICN) and unlabeled ATP at 10 μM, or only unlabeled ATP at concentrations from 1 to 100 μM or other NTPs or dNTPs at concentrations of 1 to 100 μM. Reactions were incubated for the indicated times at 23° C. and then terminated with SDS loading buffer. Samples were analyzed on a 6–15% SDS polyacrylamide gel which was silver stained, dried and subjected to autoradiography if the assay contained label.

Test [1] concerns DRB-sensitive runoff transcription in HeLa nuclear extract (P-TEFb-like activity). Nature of the test: Pulse-chase transcription in HeLa nuclear extract. The format is biochemical, human. The method, then: A pulse-chase protocol was used in which the template DNA was preincubated with the extract, 20 mM HEPES, pH 7.6 and 10 mM MgCl2 for 20 min at 30° C. Nucleotides, including [α-^32P]CTP were added to start the pulse; 2 min later, excess cold CTP was added to initiate the chase. Reactions were stopped after the indicated chase times. During the pulse, 10 μl reaction mixtures contained the following: 20 mM HEPES (pH 7.6), 10 mM MgCl2, 600 μM each GTP, UTP and ATP, 5 μCi of [α-^32P]CTP (˜1 μM CTP), 66 mM KCl, 10–40 μg/ml DNA template, and 3 μl of HeLa nuclear extract. For the chase, unlabeled CTP was added to bring the total concentration of CTP to 1.2 mM and the final reaction volume to 12 μl. Reaction mixtures containing 250 mM KCl, were supplemented with KCl at the beginning of the chase. Drosophila P-TEFb was added to the preincubation mixture where indicated. Reactions were stopped by adding 200 μl of stop solution (1% Sarkosyl, 50 mM Tris, pH 8.0, 50 mM EDTA, 100 mM NaCl and 100 μg/ml tRNA). The reaction mixtures were phenol extracted and the nucleic acids were ethanol precipitated, washed with 70% ethanol, dried and analyzed by gel electrophoresis.
For polyacrylamide gel electrophoresis, samples were resuspended in […] of 0.25×TBE (1×TBE contains 89 mM Tris base, 89 mM Boric acid and 2 mM EDTA) and 8 M urea, heated for 3 min at 85° C. and analyzed in 6% acrylamide-8 M urea-1×TBE gels. Denaturing agarose gel electrophoresis was performed by resuspending samples in 50% formamide-2.2 M formaldehyde-1× morpholinepropanesulfonic acid (MOPS) buffer (20 mM MOPS, pH 7.0; 5 mM sodium acetate, 1 mM EDTA) and heating the mixture at 60° C. for 5 min. Samples were resolved in a 2% agarose gel containing 2.2 M formaldehyde and IX MOPS buffer.

For another test, the target named is T1, human P-TEFb (Homo sapiens, UniProt P50750).
T1 construct: endogenous in cells; host or cells: HeLa nuclear extract (HNE), immunoprecipitate on anti-PITALRE-CT beads
Nature of the test: CTD kinase assay with immunoprecipitated human P-TEFb and Drosophila RNA polymerase II as substrate (FIG. 7B). The following applies: for IC50: immunoprecipitated human P-TEFb, 10 μM ATP, read-out: 50% inhibition point, CTD kinase assay. The format is biochemical. The method, then:
For every 50 μl of HNE, 10 μl of protein A beads containing 1 μg of bound IgG was used. After depletion of HNE, the antibody-containing beads were extensively washed with 100 times the bead volume of 20 mM HEPES (pH 7.6), 0.5% NP-40, 1% Triton X-100, and 5 mM DTT, 600 mM or indicated concentration of NaCl, and then washed with 25 times the bead volume of 20 mM HEPES (pH 7.6) and 1 mM DTT. The amounts of the washed beads used for the kinase assays and silver staining were the equivalent of 1 μl and 10 μl of HNE, respectively.
CTD kinase assays were performed in a […] reaction containing 20 mM HEPES (pH7.6), 10 μM ATP, 5 μCi [γ-^32P]ATP, 10 ng Drosophila RNA polymerase II, 5 mM MgCl2, and purified Drosophila P-TEFb or immunoprecipitated human P-TEFb. In the reactions containing DRB it was added to 50 μM unless other indicated amounts were used. The reactions were incubated at 30° C. for 1 hour.

A further test concerns the target T2, TAK (Homo sapiens, UniProt P50750).
T2 construct: Nuclear extract, cytoplasmic extract, or fractions containing partially purified TAK were incubated with glutathione-Sepharose beads containing GST-Tat fusion proteins; endogenous in cells; host or cells: HeLa cell extract or partially purified HeLa cytoplasmic fraction; GST-Tat made in E. coli DE3 (BL21)
In words: TAK activity assay (GST-Tat pull-down, CTD3 peptide). The format is biochemical. To be noted: in a manner similar to P-TEFb. The method, then:
Preparation of Tat fusion proteins and the TAK pull-down assay were conducted as described by Herrmann and Rice (Herrmann and Rice, 1993; 1995) with modifications as described. Nuclear extract, cytoplasmic extract, or fractions containing partially purified TAK were incubated with glutathione-Sepharose beads containing GST-Tat fusion proteins for 1 hour at 4° C. with gentle rocking. DE3 (BL21) bacteria containing the GST-Tat expression vectors were obtained from NIH AIDS Research and Reference Reagent Program. For maximum sensitivity, GST-Tat48Δ was used unless otherwise specified. The beads (30 μl, 50% slurry) were washed 6 to 8 times with 1 ml EBCD buffer (50 mM Tris, pH 8.0, 120 mM NaCl, 0.5% Nonidet P-40, and 5 mM DTT) containing 0.03% SDS, then 2 to 4 times with Tat kinase buffer (TKB/Mg: 50 mM Tris-HCl, pH 7.6, 5 mM DTT, 5 mM MnCl2, and 4 mM MgCl2), and brought to 50 μl with TKB/Mg buffer and kinase assay mix. The final reaction contained 2 μM ATP, 10 μCi y-^32P-ATP (ICN, 3000 Ci/mmole), and 50–100 μM of CTD trimer peptide CTD3 ([…], SEQ ID NO:68). Reactions were incubated at 25° C. for 40 minutes, stopped by boiling in Laemmli sample buffer, and resolved by electrophoresis in 15% polyacrylamide: bis-acrylamide (30%:0.15%) gels.

Another test concerns HeLa cells. The following applies: added to HeLa cells; cited from earlier work.

Each structure is given as a SMILES string.

T1 sequence (P50750 whole entry): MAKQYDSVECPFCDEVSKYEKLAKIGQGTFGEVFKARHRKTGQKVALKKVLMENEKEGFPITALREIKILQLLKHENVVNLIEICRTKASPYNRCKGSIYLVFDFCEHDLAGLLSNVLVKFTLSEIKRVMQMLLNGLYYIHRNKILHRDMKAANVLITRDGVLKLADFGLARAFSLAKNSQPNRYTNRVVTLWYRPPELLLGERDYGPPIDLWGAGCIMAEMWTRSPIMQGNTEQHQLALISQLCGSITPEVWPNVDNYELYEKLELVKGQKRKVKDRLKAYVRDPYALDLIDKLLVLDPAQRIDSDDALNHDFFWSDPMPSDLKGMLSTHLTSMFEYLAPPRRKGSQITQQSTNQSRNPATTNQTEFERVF
T1 sequence (O60563 whole entry partner): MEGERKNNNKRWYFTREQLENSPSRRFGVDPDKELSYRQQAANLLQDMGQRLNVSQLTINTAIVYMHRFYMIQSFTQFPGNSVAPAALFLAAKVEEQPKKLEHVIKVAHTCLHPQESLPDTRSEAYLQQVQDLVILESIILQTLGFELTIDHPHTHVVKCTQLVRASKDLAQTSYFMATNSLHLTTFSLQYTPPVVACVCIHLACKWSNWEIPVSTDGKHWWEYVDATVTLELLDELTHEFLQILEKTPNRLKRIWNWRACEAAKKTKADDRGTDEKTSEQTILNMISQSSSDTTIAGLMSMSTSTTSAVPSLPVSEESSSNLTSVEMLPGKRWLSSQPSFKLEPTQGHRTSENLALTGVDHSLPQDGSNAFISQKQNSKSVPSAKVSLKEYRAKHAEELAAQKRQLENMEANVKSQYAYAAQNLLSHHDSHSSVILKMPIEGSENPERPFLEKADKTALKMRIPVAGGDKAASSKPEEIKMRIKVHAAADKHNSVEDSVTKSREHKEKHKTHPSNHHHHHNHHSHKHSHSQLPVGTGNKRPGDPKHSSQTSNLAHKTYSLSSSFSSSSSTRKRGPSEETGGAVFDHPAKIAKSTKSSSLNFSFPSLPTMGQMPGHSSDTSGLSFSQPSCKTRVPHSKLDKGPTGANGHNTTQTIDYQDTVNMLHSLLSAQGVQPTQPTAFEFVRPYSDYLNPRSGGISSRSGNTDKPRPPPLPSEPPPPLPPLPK
T2 sequence (P50750 whole entry, the tested form may be a part): as the sequence (P50750 whole entry) above
T2 sequence (O60563 whole entry, further chain, the tested form may be a part): as the sequence (O60563 whole entry partner) above
T2 sequence (P04608 1-48, further chain): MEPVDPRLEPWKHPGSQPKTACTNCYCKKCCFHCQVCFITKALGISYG

For the compound `OC[C@H]1O[C@@H](n2cnc3cc(Cl)c(Cl)cc32)[C@H](O)[C@@H]1O` [DRB, 5,6-dichloro-1-β-D-ribofuranosylbenzimidazole], in the test on Drosophila P-TEFb (10 μM ATP, DRB at 10 μM), the “inhibition of P-TEFb CTD kinase” value is reported as “strongly inhibited”. Further, the “sensitivity of CTD kinase activity of P-TEFb” value in the test on Drosophila P-TEFb (20 μM DRB) was “sensitive”. Further, the “inhibition of P-TEFb CTD kinase at higher ATP” value in the test with Drosophila P-TEFb is reported as “less effective”. Also, in test [1], the “DRB concentration at which maximum inhibition occurred” value amounted to 30 µM, the “formation of DRB-insensitive processive elongation complexes” value was “did not inhibit” and the “fraction of runoff generated that was DRB-sensitive” value was 60%. For the same compound, at human P-TEFb (50 μM DRB), the “sensitivity of phosphorylation by beads containing PITALRE” value was “sensitive”. In addition, on human P-TEFb, the IC50 came to 0.65 µM. For the same compound, the TAK activity entry at TAK is recorded as “inhibited”. Moreover, the “amount of RNA polymerase IIo” value in the test with HeLa cells is given as “rapid decrease”.
For `CNCCNS(=O)(=O)c1cccc2cnccc12` [H-8], the “amount of H-8 required relative to DRB to inhibit the kinase to the same level” value in the test with Drosophila P-TEFb (10 μM ATP) is “approximately 10 times”. Besides, the “inhibition of P-TEFb CTD kinase at higher ATP” value in the test with Drosophila P-TEFb was “less effective”. For the same compound, the IC50 in test [1] (HeLa NE, 2 min pulse/45 sec chase, read-out: 50% inhibition point of appearance of runoff) came to 20 µM. For the same compound, at human P-TEFb, the “ratio of 50% inhibition points (H-8/DRB), CTD kinase assay” value turned out to be 25 and the IC50 turned out to be 16 µM. For the same compound, the TAK activity entry at TAK is recorded as “inhibited”. In addition, the “amount of RNA polymerase IIo” value in the test with HeLa cells was “rapid decrease”.
